Test results reported in patent publication US20260015325A1, “ALKOXY HETEROARYL- CARBOXAMIDE OR THIOAMIDE COMPOUNDS” (SYNGENTA CROP PROTECTION AG, priority 2022, published 2026).

Assays:
Assay type in all cases: in vivo
[1] = test system: Euschistus heros (Neotropical Brown Stink Bug); assay: Euschistus heros (Neotropical Brown Stink Bug), soybean leaves; conditions: 120 h, application rate of 200 ppm, N2 nymphs on sprayed soybean leaves, 5 days after infestation, read-out: effect in at least one of the two categories (mortality or growth inhibition)
Method: Example B4: Euschistus heros (Neotropical Brown Stink Bug)
Soybean leaves on agar in 24-well microtiter plates were sprayed with aqueous test solutions prepared from 10′000 ppm DMSO stock solutions. After drying the leaves were infested with N2 nymphs. The samples were assessed for mortality and growth inhibition in comparison to untreated samples 5 days after infestation.

[2] = test system: Bemisia tabaci (Cotton White Fly); assay: Bemisia tabaci (Cotton White Fly): feeding/contact activity, cotton leaf discs; conditions: foliar, 144 h, application rate of 200 ppm, adult white flies on sprayed cotton leaf discs, 6 days after incubation, read-out: mortality
Method: Example B1: Bemisia tabaci (Cotton White Fly): Feeding/Contact Activity
Cotton leaf discs were placed on agar in 24-well microtiter plates and sprayed with aqueous test solutions prepared from 10′000 ppm DMSO stock solutions. After drying the leaf discs were infested with adult white flies. The samples were checked for mortality 6 days after incubation.

[3] = test system: Plutella xylostella (Diamond Back Moth); assay: Plutella xylostella (Diamond Back Moth), artificial diet; conditions: 192 h, application rate of 200 ppm, eggs on treated artificial diet, 8 days after infestation, read-out: effect in at least one of the two categories (mortality or growth inhibition)
Method: Example B9: Plutella xylostella (Diamond Back Moth)
24-well microtiter plates with artificial diet were treated with aqueous test solutions prepared from 10′000 ppm DMSO stock solutions by pipetting. After drying, Plutella eggs were pipetted through a plastic stencil onto a gel blotting paper and the plate was closed with it. The samples were assessed for mortality and growth inhibition in comparison to untreated samples 8 days after infestation.

[4] = test system: Diabrotica balteata (Corn Root Worm); assay: whole plant or invertebrate; conditions: 96 h, application rate of 200 ppm, L2 larvae on sprayed maize sprouts, 4 days after infestation, read-out: effect in at least one of the two categories (mortality or growth inhibition)
Method: Example B3: Diabrotica balteata (Corn Root Worm)
Maize sprouts placed onto an agar layer in 24-well microtiter plates were treated with aqueous test solutions prepared from 10′000 ppm DMSO stock solutions by spraying. After drying, the plates were infested with L2 larvae (6 to 10 per well). The samples were assessed for mortality and growth inhibition in comparison to untreated samples 4 days after infestation.

[5] = test system: Tetranychus urticae (Two-Spotted Spider Mite); assay: whole plant or invertebrate; conditions: foliar, 192 h, application rate of 200 ppm, mixed population (mobile stages) on sprayed bean leaf discs, 8 days after infestation, read-out: mortality
Method: Example B11: Tetranychus urticae (Two-Spotted Spider Mite): Feeding/Contact Activity
Bean leaf discs on agar in 24-well microtiter plates were sprayed with aqueous test solutions prepared from 10′000 ppm DMSO stock solutions. After drying the leaf discs were infested with a mite population of mixed ages. The samples were assessed for mortality on mixed population (mobile stages) 8 days after infestation.

[6] = test system: Myzus persicae (Green Peach Aphid); assay: Myzus persicae (Green Peach Aphid): intrinsic activity, sucrose solution; conditions: 120 h, test rate of 12 ppm, intrinsic, mixed with sucrose solution under Parafilm, 5 days after infestation, read-out: mortality
Outline: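 Compounds from 10′000 ppm DMSO stocks mixed with sucrose solution in wells sealed with Parafilm; aphid-infested pea seedlings placed on the Parafilm and the assembly inverted so aphids feed through the membrane. Mortality assessed 5 days after infestation.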

[7] = test system: Myzus persicae (Green Peach Aphid); assay: Myzus persicae (Green Peach Aphid): systemic activity, pea seedlings; conditions: 144 h, test rate of 24 ppm, systemic, roots of infested pea seedlings in test solution, 6 days, read-out: mortality
Method: Example B7: Myzus persicae (Green Peach Aphid). Systemic Activity
Roots of pea seedlings infested with an aphid population of mixed ages were placed directly into aqueous test solutions prepared from 10′000 DMSO stock solutions. The samples were assessed for mortality 6 days after placing seedlings into test solutions.

[8] = test system: Myzus persicae (Green Peach Aphid); assay: Myzus persicae (Green Peach Aphid): feeding/contact activity, sunflower leaf discs; conditions: foliar, 144 h, application rate of 200 ppm, mixed ages on sprayed sunflower leaf discs, 6 days after infestation, read-out: mortality
Method: Example B6: Myzus persicae (Green Peach Aphid): Feeding/Contact Activity
Sunflower leaf discs were placed onto agar in a 24-well microtiter plate and sprayed with aqueous test solutions prepared from 10′000 ppm DMSO stock solutions. After drying, the leaf discs were infested with an aphid population of mixed ages. The samples were assessed for mortality 6 days after infestation.

[9] = test system: Frankliniella occidentalis (Western Flower Thrips); assay: Frankliniella occidentalis (Western Flower Thrips): feeding/contact activity, sunflower leaf discs; conditions: foliar, 168 h, application rate of 200 ppm, mixed ages on sprayed sunflower leaf discs, 7 days after infestation
Method: Example B5: Frankliniella occidentalis (Western Flower Thrips): Feeding/Contact Activity
Sunflower leaf discs were placed on agar in 24-well microtiter plates and sprayed with aqueous test solutions prepared from […] stock solutions. After drying the leaf discs were infested with a Frankliniella population of mixed ages. The samples were assessed for mortality 7 days after infestation.

Spodoptera littoralis = Spodoptera littoralis (Egyptian Cotton Leaf Worm), cotton leaf discs; conditions: foliar, 72 h, application rate of 200 ppm, L1 larvae on sprayed cotton leaf discs, 3 days after infestation, read-out: control (at least one of mortality, anti-feedant effect, growth inhibition)
Method: Example B10: Spodoptera littoralis (Eaytian Cotton Leaf Worm)
Cotton leaf discs were placed onto agar in 24-well microtiter plates and sprayed with aqueous test solutions prepared from 10′000 ppm DMSO stock solutions. After drying the leaf discs were infested with five L1 larvae. The samples were assessed for mortality, anti-feeding effect, and growth inhibition in comparison to untreated samples 3 days after infestation. Control of Spodoptera littoralis by a test sample is given when at least one of the categories mortality, anti-feedant effect, and growth inhibition is higher than the untreated sample.

[10] = test system: Chilo suppressalis (Striped Rice Stemborer); assay: Chilo suppressalis (Striped Rice Stemborer), artificial diet; conditions: 144 h, application rate of 200 ppm, L2 larvae on treated artificial diet, 6 days after infestation, read-out: control (at least one of mortality, anti-feedant effect, growth inhibition)
Method: Example B2: Chilo suppressalis (Striped Rice Stemborer)
24-well microtiter plates with artificial diet were treated with aqueous test solutions prepared from 10′000 ppm DMSO stock solutions by pipetting. After drying, the plates were infested with L2 larvae (6-8 per well). The samples were assessed for mortality, anti-feeding effect, and growth inhibition in comparison to untreated samples 6 days after infestation. Control of Chilo suppressalis by a test sample is given when at least one of the categories mortality, anti-feedant effect, and growth inhibition is higher than the untreated sample.

C[C@@H](COc1cnc(Cl)c(C(=O)NC2CC2)c1)NS(=O)(=O)C(F)(F)F [Compound P-1, 2-chloro-N-cyclopropyl-5-[(2S)-2-(trifluoromethylsulfonylamino)propoxy]pyridine-3-carboxamide]
≥ 80%: percent effect (mortality or growth inhibition) at 200 ppm [1] | mortality at 200 ppm [2] | percent effect (mortality or growth inhibition) at 200 ppm [3] | percent effect (mortality or growth inhibition) at 200 ppm [4] | mortality at 200 ppm [5] | mortality at 12 ppm [6] | mortality at 24 ppm [7] | mortality at 200 ppm [8] | mortality at 200 ppm [9]

C[C@@H](COc1cnc(Cl)c(C(=O)NC2(C#N)CC2)c1)NS(=O)(=O)C(F)(F)F [Compound P-2, 2-chloro-N-(1-cyanocyclopropyl)-5-[(2S)-2-(trifluoromethylsulfonylamino)propoxy]pyridine-3-carboxamide]
≥ 80%: percent effect (mortality or growth inhibition) at 200 ppm [1] | mortality at 200 ppm [2] | percent effect (mortality or growth inhibition) at 200 ppm [4] | mortality at 12 ppm [6] | percent control (mortality, anti-feedant effect or growth inhibition) at 200 ppm (Spodoptera littoralis) | mortality at 24 ppm [7] | mortality at 200 ppm [8] | percent control (mortality, anti-feedant effect or growth inhibition) at 200 ppm [10] | mortality at 200 ppm [9]

C[C@@H](COc1cnc(Cl)c(C(=O)NC23CC(C2)C3)c1)NS(=O)(=O)C(F)(F)F [Compound P-5, N-(1-bicyclo[1.1.1]pentanyl)-2-chloro-5-[(2S)-2-(trifluoromethylsulfonylamino)propoxy]pyridine-3-carboxamide]
≥ 80%: percent effect (mortality or growth inhibition) at 200 ppm [3] | mortality at 200 ppm [5] | mortality at 12 ppm [6] | mortality at 24 ppm [7] | mortality at 200 ppm [8]

C[C@@H](COc1cnc(Cl)c(C(=O)NC2(C#N)CC2)c1)N(C)S(=O)(=O)C(F)(F)F [Compound P-7, 2-chloro-N-(1-cyanocyclopropyl)-5-[(2S)-2-[methyl(trifluoromethylsulfonyl)amino]propoxy]pyridine-3-carboxamide]
≥ 80%: mortality at 200 ppm [2] | percent effect (mortality or growth inhibition) at 200 ppm [4] | mortality at 12 ppm [6] | mortality at 24 ppm [7] | mortality at 200 ppm [9]

C[C@@H](COc1cnc(Cl)c(C(=O)Nc2ccc(C#N)cc2F)c1)NS(=O)(=O)C(F)(F)F [Compound P-22, 2-chloro-N-(4-cyano-2-fluoro-phenyl)-5-[(2S)-2-(trifluoromethylsulfonylamino)propoxy]pyridine-3-carboxamide]
≥ 80%: percent effect (mortality or growth inhibition) at 200 ppm [4] | mortality at 200 ppm [5]

C[C@@H](COc1cnc(Cl)c(C(=O)Nc2ccc(F)cc2F)c1)NS(=O)(=O)C(F)(F)F [Compound P-23, 2-chloro-N-(2,4-difluorophenyl)-5-[(2S)-2-(trifluoromethylsulfonylamino)propoxy]pyridine-3-carboxamide]
≥ 80%: mortality at 200 ppm [2] | percent effect (mortality or growth inhibition) at 200 ppm [3] | mortality at 200 ppm [5] | mortality at 12 ppm [6]

C[C@@H](COc1cnc(Cl)c(C(=O)Nc2ccc(Cl)cc2F)c1)NS(=O)(=O)C(F)(F)F [Compound P-25, 2-chloro-N-(4-chloro-2-fluoro-phenyl)-5-[(2S)-2-(trifluoromethylsulfonylamino)propoxy]pyridine-3-carboxamide]
≥ 80%: percent effect (mortality or growth inhibition) at 200 ppm [3] | mortality at 200 ppm [5]

Cc1ncc(OC[C@H](C)NS(=O)(=O)C(F)(F)F)cc1C(=O)NOCC1CC1 [Compound P-41, N-(cyclopropylmethoxy)-2-methyl-5-[(2S)-2-(trifluoromethylsulfonylamino)propoxy]pyridine-3-carboxamide]
≥ 80%: percent effect (mortality or growth inhibition) at 200 ppm [3]

Cc1cc(F)ccc1NC(=O)c1cc(OC[C@H](C)NS(=O)(=O)C(F)(F)F)cnc1Cl [Compound P-60, 2-chloro-N-(4-fluoro-2-methyl-phenyl)-5-[(2S)-2-(trifluoromethylsulfonylamino)propoxy]pyridine-3-carboxamide]
≥ 80%: percent effect (mortality or growth inhibition) at 200 ppm [3] | mortality at 200 ppm [5] | mortality at 12 ppm [6] | percent control (mortality, anti-feedant effect or growth inhibition) at 200 ppm (Spodoptera littoralis)

COCN([C@@H](C)COc1cnc(Cl)c(C(=O)NCC(F)(F)F)c1)S(=O)(=O)C(F)(F)F [Compound P-63, 2-chloro-5-[(2S)-2-[methoxymethyl(trifluoromethylsulfonyl)amino]propoxy]-N-(2,2,2-trifluoroethyl)pyridine-3-carboxamide]
≥ 80%: percent effect (mortality or growth inhibition) at 200 ppm [1] | mortality at 200 ppm [2] | mortality at 200 ppm [5] | mortality at 12 ppm [6] | percent control (mortality, anti-feedant effect or growth inhibition) at 200 ppm [10]

COCN([C@@H](C)COc1cnc(Cl)c(C(=O)NC2CC2)c1)S(=O)(=O)C(F)(F)F [Compound P-64, 2-chloro-N-cyclopropyl-5-[(2S)-2-[methoxymethyl(trifluoromethylsulfonyl)amino]propoxy]pyridine-3-carboxamide]
≥ 80%: percent effect (mortality or growth inhibition) at 200 ppm [1] | mortality at 200 ppm [2] | percent effect (mortality or growth inhibition) at 200 ppm [4] | mortality at 200 ppm [5] | mortality at 12 ppm [6] | mortality at 24 ppm [7] | mortality at 200 ppm [8] | mortality at 200 ppm [9]

CCN1OC[C@@H](NC(=O)c2cc(OC[C@H](C)NS(=O)(=O)C(F)(F)F)cnc2Cl)C1=O [Compound P-65, 2-chloro-N-[(4R)-2-ethyl-3-oxo-isoxazolidin-4-yl]-5-[(2S)-2-(trifluoromethylsulfonylamino)propoxy]pyridine-3-carboxamide]
≥ 80%: mortality at 200 ppm [5] | percent control (mortality, anti-feedant effect or growth inhibition) at 200 ppm (Spodoptera littoralis)

CCN1OC[C@@H](NC(=O)c2cc(OC[C@H](C)NS(=O)(=O)C(F)(F)F)ncc2Br)C1=O [Compound P-84, 5-bromo-N-[(4R)-2-ethyl-3-oxo-isoxazolidin-4-yl]-2-[(2S)-2-(trifluoromethylsulfonylamino)propoxy]pyridine-4-carboxamide]
≥ 80%: percent effect (mortality or growth inhibition) at 200 ppm [4]
